Reference: paper PMC6627609, “Targeting Quorum Sensing: High-Throughput Screening to Identify Novel LsrK Inhibitors” (International Journal of Molecular Sciences, 2019)
Where a name gives a salt, the structure may show the parent alone.

Target: LsrK (Salmonella typhimurium, UniProt Q8ZKQ6)
Assay: biochemical
Type: biochemical, S. typhimurium

LsrK, sequence (Q8ZKQ6 whole entry): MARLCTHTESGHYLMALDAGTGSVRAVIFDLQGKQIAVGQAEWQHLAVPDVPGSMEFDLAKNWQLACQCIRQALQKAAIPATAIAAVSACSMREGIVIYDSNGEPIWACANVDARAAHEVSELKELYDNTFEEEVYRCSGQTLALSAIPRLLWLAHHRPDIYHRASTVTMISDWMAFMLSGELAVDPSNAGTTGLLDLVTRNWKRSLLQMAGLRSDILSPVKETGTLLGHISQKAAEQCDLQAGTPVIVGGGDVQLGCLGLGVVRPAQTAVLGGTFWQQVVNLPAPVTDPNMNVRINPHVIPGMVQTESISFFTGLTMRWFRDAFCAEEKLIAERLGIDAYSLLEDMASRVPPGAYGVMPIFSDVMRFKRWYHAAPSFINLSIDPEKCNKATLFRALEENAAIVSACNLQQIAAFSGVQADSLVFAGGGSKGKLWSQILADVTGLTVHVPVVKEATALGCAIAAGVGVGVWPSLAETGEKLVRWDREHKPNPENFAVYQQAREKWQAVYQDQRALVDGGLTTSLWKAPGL

Q: For `C[C@H](CCC(=O)O)[C@H]1CC[C@H]2[C@@H]3[C@H](O)C[C@@H]4C[C@H](O)CC[C@]4(C)[C@H]3CC[C@]12C` [CHENODIOL], which inhibition at 50 µM is on record?
A: 2%

Q: Which inhibition at 50 µM does the source give for `COc1cc(-c2ccc(/N=N/c3ccc4c(S(=O)(=O)O)cc(S(=O)(=O)O)c(N)c4c3O)c(OC)c2)ccc1/N=N/c1ccc2c(S(=O)(=O)O)cc(S(=O)(=O)O)c(N)c2c1O` [CHICAGO SKY BLUE] here?
A: 41%

Q: How did the inhibition at 50 µM turn out when `OC[C@@H](O)[C@H]1O[C@@H]2O[C@H](C(Cl)(Cl)Cl)O[C@@H]2[C@H]1O` [CHLORALOSE] was run?
A: 1%

Q: With `CC(=O)O[C@]1(C(C)=O)CC[C@H]2[C@@H]3C=C(Cl)C4=CC(=O)CC[C@]4(C)[C@H]3CC[C@@]21C` [CHLORMADINONE ACETATE] as the compound, how does the inhibition at 50 µM read?
A: 1%

Q: With `[H]/N=C(\N/C(=N/[H])Nc1ccc(Cl)cc1)NC(C)C` [CHLOROGUANIDE HYDROCHLORIDE] as the compound, how does the inhibition at 50 µM read?
A: 1%

Q: How did the inhibition at 50 µM turn out when `NS(=O)(=O)c1cc2c(cc1Cl)N=CNS2(=O)=O` [CHLOROTHIAZIDE] was run?
A: 0%

Q: `Oc1c(Cl)cc(Cl)c2cccnc12` [CHLOROXINE] was tested. Which inhibition at 50 µM did it give?
A: 13%

Q: Which inhibition at 50 µM does the source give for `CCCNC(=O)NS(=O)(=O)c1ccc(Cl)cc1` [CHLORPROPAMIDE] here?
A: 1%

Q: `CN(C)CC/C=C1/c2ccccc2Sc2ccc(Cl)cc21` [CHLORPROTHIXENE HYDROCHLORIDE] was tested. Which inhibition at 50 µM did it give?
A: 2%

Q: Which inhibition at 50 µM does the source give for `CCOP(=S)(OCC)Oc1nc(Cl)c(Cl)cc1Cl` [CHLORPYRIFOS] here?
A: 0%

Q: Which inhibition at 50 µM does the source give for `Cc1ccc2c(Cl)cc(Cl)c(O)c2n1` [CHLORQUINALDOL] here?
A: 0%

Q: For `CN(C)[C@@H]1C(O)=C(C(N)=O)C(=O)[C@@]2(O)C(O)=C3C(=O)c4c(O)ccc(Cl)c4[C@@](C)(O)[C@H]3C[C@@H]12` [CHLORTETRACYCLINE HYDROCHLORIDE], which inhibition at 50 µM is on record?
A: 77%

Q: For `C[C@H](CCC(=O)O)[C@H]1CC[C@H]2[C@@H]3CCC4CCCC[C@]4(C)[C@H]3C=C[C@]12C` (stereo partly shown) [CHOL-11-ENIC ACID], which inhibition at 50 µM is on record?
A: 45%

Q: For `C=C1CC[C@H](O)C/C1=C/C=C1\CCC[C@]2(C)[C@@H]([C@H](C)CCCC(C)C)CC[C@@H]12` [CHOLECALCIFEROL], which inhibition at 50 µM is on record?
A: 90%

Q: `CC(C)CCC[C@@H](C)[C@H]1CC[C@H]2[C@@H]3CC=C4C[C@@H](O)CC[C@]4(C)[C@H]3CC[C@]12C` [CHOLESTEROL] was tested. Which inhibition at 50 µM did it give?
A: 0%

Q: For `C[C@H](CCC(=O)O)[C@H]1CC[C@H]2[C@@H]3[C@H](O)C[C@@H]4C[C@H](O)CC[C@]4(C)[C@H]3C[C@H](O)[C@]12C` [CHOLIC ACID], which inhibition at 50 µM is on record?
A: 0%

Q: With `COc1cc(OC)c2c(=O)cc(-c3ccccc3)oc2c1` [CHRYSIN DIMETHYL ETHER] as the compound, how does the inhibition at 50 µM read?
A: 1%

Q: `O=c1cc(-c2ccccc2)oc2cc(O)cc(O)c12` [CHRYSIN] was tested. Which inhibition at 50 µM did it give?
A: 3%

Q: With `Cc1cc(O)c2c(c1)C(=O)c1cccc(O)c1C2=O` [CHRYSOPHANOL] as the compound, how does the inhibition at 50 µM read?
A: 1%

Q: Which inhibition at 50 µM does the source give for `COC(=O)C[C@H]1C2(C)CC34OC5(C)O[C@@]6([C@H](OC)C(OC(=O)C(C)C)[C@]7(C)C(/C(=C(/OC)C(C)C)C(=O)O[C@H]7c7ccoc7)[C@@]6(O5)[C@H](OC)[C@@]3(OC)C2OC(C)=O)[C@]14C` (stereo partly shown) [CHUKRASIN METHYL ETHER] here?
A: 1%

Q: How did the inhibition at 50 µM turn out when `O=C(O)CCCCCCCCCCCC[C@@H]1C=CCC1` [CH[…]] was run?
A: 156%

Q: With `O=C1CCc2cc(OCCCCc3nnnn3C3CCCCC3)ccc2N1` [CILOSTAZOL] as the compound, how does the inhibition at 50 µM read?
A: 2%

Q: How did the inhibition at 50 µM turn out when `C=C[C@H]1CN2CC[C@H]1C[C@H]2[C@H](O)c1ccnc2ccccc12` [CINCHONIDINE] was run?
A: 0%

Q: For `C=C[C@H]1C[N@@]2CC[C@H]1C[C@@H]2[C@@H](O)c1ccnc2ccccc12` [CINCHONINE], which inhibition at 50 µM is on record?
A: 1%

Q: `O=C(O)c1cc(-c2ccccc2)nc2ccccc12` [CINCHOPHEN] was tested. Which inhibition at 50 µM did it give?
A: 6%

Q: For `CC12CCC(CC1)C(C)(C)O2` [CINEOLE], which inhibition at 50 µM is on record?
A: 1%

Q: How did the inhibition at 50 µM turn out when `O=C(O)c1cn(C2CC2)c2cc(N3CCNCC3)c(F)cc2c1=O` [CIPROFLOXACIN] was run?
A: 1%

Q: For `N.N.[Cl][Pt][Cl]` [CISPLATIN], which “Inhibition (%)” value (50 µM) is on record?
A: 2
